Experimental data taken from patent publication US11207325B2, “Triazolopyrimidine compounds and uses thereof” (Novartis AG, priority 2014, dated 2021).

Tested on: H3K27 methylation in G401 cell
Experiment: ELISA (H3K27 methylation) assay
Assay type: cell-based
Details: Homo sapiens, G-401; ELISA Qualified assay (H3K27 methylation); read-out: (c) IC50 (μM), ELISA Qualified
Description: ELISA (H3K27 Methylation) Assay

c1cncc(-c2cnc(NCc3cccc4c3CCO4)n3cnnc23)c1 [Example 16, N-((2,3-dihydrobenzofuran-4-yl)methyl)-8-(pyridin-3-yl)-[1,2,4]triazolo[4,3-c]pyrimidin-5-amine]
IC50: 0.0604 µM

CS(=O)(=O)Nc1ccc(-c2cnc(NCc3c(F)ccc4c3CCO4)n3cnnc23)cc1F [Example 39, N-(2-fluoro-4-(5-(((5-fluoro-2,3-dihydrobenzofuran-4-yl)methyl)amino)-[1,2,4]triazolo[4,3-c]pyrimidin-8-yl)phenyl)methanesulfonamide]
IC50: 0.0227 µM

Fc1ccc2c(c1CNc1ncc(-c3ccnnc3)c3nncn13)CCO2 [Example 202, N-((5-fluoro-2,3-dihydrobenzofuran-4-yl)methyl)-8-(pyridazin-4-yl)-[1,2,4]triazolo[4,3-c]pyrimidin-5-amine]
IC50: 0.0206 µM

COc1ncccc1-c1cnc(NCc2c(F)ccc3c2CCO3)n2cnnc12 [Example 141, N-((5-fluoro-2,3-dihydrobenzofuran-4-yl)methyl)-8-(2-methoxypyridin-3-yl)-[1,2,4]triazolo[4,3-c]pyrimidin-5-amine]
IC50: 0.0351 µM

CN(C)c1ccc(-c2cnc(NCc3cccc4c3CCO4)n3cnnc23)cn1 [Example 61, N-((2,3-dihydrobenzofuran-4-yl)methyl)-8-(6-(dimethylamino)pyridin-3-yl)-[1,2,4]triazolo[4,3-c]pyrimidin-5-amine]
IC50: 0.175 µM

Cc1nn(C)cc1-c1cnc(NCc2cccc3c2CCO3)n2cnnc12 [Example 30, N-((2,3-dihydrobenzofuran-4-yl)methyl)-8-(1,3-dimethyl-1H-pyrazol-4-yl)-[1,2,4]triazolo[4,3-c]pyrimidin-5-amine]
IC50: 0.069 µM

Fc1ccc2c(c1CNc1ncc(-c3cnccn3)c3nncn13)CCO2 [Example 205, N-((5-fluoro-2,3-dihydrobenzofuran-4-yl)methyl)-8-(pyrazin-2-yl)-[1,2,4]triazolo[4,3-c]pyrimidin-5-amine]
IC50: 0.0167 µM

Cc1nccc(-c2cnc(NCc3c(F)ccc4c3CCO4)n3cnnc23)c1C [Example 177, 8-(2,3-dimethylpyridin-4-yl)-N-((5-fluoro-2,3-dihydrobenzofuran-4-yl)methyl)-[1,2,4]triazolo[4,3-c]pyrimidin-5-amine]
IC50: 0.0044 µM

CC(O)c1ccc(-c2cnc(NCc3cccc4c3CCO4)n3cnnc23)cn1 (stereo not shown) [Example 84, 1-(5-(5-(((2,3-dihydrobenzofuran-4-yl)methyl)amino)-[1,2,4]triazolo[4,3-c]pyrimidin-8-yl)pyridin-2-yl)ethanol]
IC50: 0.148 µM

Clc1ccncc1-c1cnc(NCc2cccc3c2CCO3)n2cnnc12 [Example 50, 8-(4-chloropyridin-3-yl)-N-((2,3-dihydrobenzofuran-4-yl)methyl)-[1,2,4]triazolo[4,3-c]pyrimidin-5-amine]
IC50: 0.12 µM

FC(F)c1ccc(-c2cnc(NCc3cccc4c3CCO4)n3cnnc23)cn1 [Example 154, 8-(6-(difluoromethyl)pyridin-3-yl)-N-((2,3-dihydrobenzofuran-4-yl)methyl)-[1,2,4]triazolo[4,3-c]pyrimidin-5-amine]
IC50: 0.0968 µM

Cc1ccncc1-c1cnc(NCc2c(F)ccc3c2CCO3)n2cnnc12 [Example 118, N-((5-fluoro-2,3-dihydrobenzofuran-4-yl)methyl)-8-(4-methylpyridin-3-yl)-[1,2,4]triazolo[4,3-c]pyrimidin-5-amine]
IC50: 0.0177 µM

O=C1CCCN1c1cncc(-c2cnc(NCc3cccc4c3CCO4)n3cnnc23)c1 [Example 87, 1-(5-(5-(((2,3-dihydrobenzofuran-4-yl)methyl)amino)-[1,2,4]triazolo[4,3-c]pyrimidin-8-yl)pyridin-3-yl)pyrrolidin-2-one]
IC50: 0.707 µM

OCc1ncccc1-c1cnc(NCc2c(F)ccc3c2C(O)CO3)n2cnnc12 (stereo not shown) [Example 243, 5-fluoro-4-(((8-(2-(hydroxymethyl)pyridin-3-yl)-[1,2,4]triazolo[4,3-c]pyrimidin-5-yl)amino)methyl)-2,3-dihydrobenzofuran-3-ol]
IC50: 0.0409 µM

CN1CCN(c2ccc(-c3cnc(NCc4cccc5occc45)n4cnnc34)cc2)CC1 [Example 209, N-(benzofuran-4-ylmethyl)-8-(4-(4-methylpiperazin-1-yl)phenyl)-[1,2,4]triazolo[4,3-c]pyrimidin-5-amine]
IC50: 0.118 µM

COC(=O)N1CCN(c2ccc(-c3cnc(NCc4cccc5c4CCO5)n4cnnc34)cn2)CC1 [Example 97, methyl 4-(5-(5-(((2,3-dihydrobenzofuran-4-yl)methyl)amino)-[1,2,4]triazolo[4,3-c]pyrimidin-8-yl)pyridin-2-yl)piperazine-1-carboxylate]
IC50: 0.183 µM

COc1ncc(-c2cnc(NCc3c(F)ccc4c3CCO4)n3cnnc23)c(C)n1 [Example 175, N-((5-fluoro-2,3-dihydrobenzofuran-4-yl)methyl)-8-(2-methoxy-4-methylpyrimidin-5-yl)-[1,2,4]triazolo[4,3-c]pyrimidin-5-amine]
IC50: 0.0034 µM

COc1cc(-c2cnc(NCc3c(F)ccc4c3CCO4)n3cnnc23)ccn1 [Example 145, N-((5-fluoro-2,3-dihydrobenzofuran-4-yl)methyl)-8-(2-methoxypyridin-4-yl)-[1,2,4]triazolo[4,3-c]pyrimidin-5-amine]
IC50: 0.0052 µM

CCNC(=O)c1ccc(-c2cnc(NCc3cccc4c3CCO4)n3cnnc23)cn1 [Example 114, 5-(5-(((2,3-dihydrobenzofuran-4-yl)methyl)amino)-[1,2,4]triazolo[4,3-c]pyrimidin-8-yl)-N-ethylpicolinamide]
IC50: 1.98 µM

O=S(=O)(c1ccc(-c2cnc(NCc3cccc4c3CCO4)n3cnnc23)cc1)C1CCNCC1 [Example 29, N-((2,3-dihydrobenzofuran-4-yl)methyl)-8-(4-(piperidin-4-ylsulfonyl)phenyl)-[1,2,4]triazolo[4,3-c]pyrimidin-5-amine]
IC50: 0.214 µM

CS(=O)(=O)c1ccc(-c2cnc(NCc3c(F)ccc4c3CCO4)n3cnnc23)cn1 [Example 56, N-((5-fluoro-2,3-dihydrobenzofuran-4-yl)methyl)-8-(6-(methylsulfonyl)pyridin-3-yl)-[1,2,4]triazolo[4,3-c]pyrimidin-5-amine]
IC50: 0.0493 µM

Fc1ccc2c(c1CNc1ncc(-c3cncnc3)c3nncn13)CCO2 [Example 206, N-((5-fluoro-2,3-dihydrobenzofuran-4-yl)methyl)-8-(pyrimidin-5-yl)-[1,2,4]triazolo[4,3-c]pyrimidin-5-amine]
IC50: 0.0159 µM

Cc1c(-c2cnc(NCc3cccc4c3CCO4)n3cnnc23)cnn1C [Example 64, N-((2,3-dihydrobenzofuran-4-yl)methyl)-8-(1,5-dimethyl-1H-pyrazol-4-yl)-[1,2,4]triazolo[4,3-c]pyrimidin-5-amine]
IC50: 0.0978 µM

O=C1CN(Cc2ccc(-c3cnc(NCc4cccc5c4CCO5)n4cnnc34)cn2)CCN1 [Example 133, 4-((5-(5-(((2,3-dihydrobenzofuran-4-yl)methyl)amino)-[1,2,4]triazolo[4,3-c]pyrimidin-8-yl)pyridin-2-yl)methyl)piperazin-2-one]
IC50: 0.142 µM

Cc1nn(C)c(C)c1-c1cnc(NCc2c(F)ccc3c2CCO3)n2cnnc12 [Example 132, N-((5-fluoro-2,3-dihydrobenzofuran-4-yl)methyl)-8-(1,3,5-trimethyl-1H-pyrazol-4-yl)-[1,2,4]triazolo[4,3-c]pyrimidin-5-amine]
IC50: 0.0077 µM

Cc1ncncc1-c1cnc(NCc2c(F)ccc3c2CCO3)n2cnnc12 [Example 176, N-((5-fluoro-2,3-dihydrobenzofuran-4-yl)methyl)-8-(4-methylpyrimidin-5-yl)-[1,2,4]triazolo[4,3-c]pyrimidin-5-amine]
IC50: 0.0046 µM

N#Cc1ccc(-c2cnc(NCc3c(F)ccc4c3CCO4)n3cnnc23)cn1 [Example 93, 5-(5-(((5-fluoro-2,3-dihydrobenzofuran-4-yl)methyl)amino)-[1,2,4]triazolo[4,3-c]pyrimidin-8-yl)picolinonitrile]
IC50: 0.0241 µM

O=CN1CCCN(c2ccc(-c3cnc(NCc4cccc5c4CCO5)n4cnnc34)cn2)CC1 [Example 113, 4-(5-(5-(((2,3-dihydrobenzofuran-4-yl)methyl)amino)-[1,2,4]triazolo[4,3-c]pyrimidin-8-yl)pyridin-2-yl)-1,4-diazepane-1-carbaldehyde]
IC50: 0.72 µM

Cn1cc(-c2cnc(NCc3c(F)ccc4c3CCO4)n3cnnc23)cn1 [Example 147, N-((5-fluoro-2,3-dihydrobenzofuran-4-yl)methyl)-8-(1-methyl-1H-pyrazol-4-yl)-[1,2,4]triazolo[4,3-c]pyrimidin-5-amine]
IC50: 0.0113 µM

Cc1c(-c2cnc(NCc3c(F)ccc4c3CCO4)n3cnnc23)ccc[n+]1[O-] [Example 204, 3-(5-(((5-fluoro-2,3-dihydrobenzofuran-4-yl)methyl)amino)-[1,2,4]triazolo[4,3-c]pyrimidin-8-yl)-2-methylpyridine 1-oxide]
IC50: 0.0103 µM

Fc1ccc2c(c1CNc1ncc(F)c3nncn13)CCO2 [Example 235, 8-fluoro-N-((5-fluoro-2,3-dihydrobenzofuran-4-yl)methyl)-[1,2,4]triazolo[4,3-c]pyrimidin-5-amine]
IC50: 0.192 µM

CC(=O)N1CCN(CCc2ccc(-c3cnc(NCc4cccc5c4CCO5)n4cnnc34)cn2)CC1 [Example 108, 1-(4-(2-(5-(5-(((2,3-dihydrobenzofuran-4-yl)methyl)amino)-[1,2,4]triazolo[4,3-c]pyrimidin-8-yl)pyridin-2-yl)ethyl)piperazin-1-yl)ethanone]
IC50: 0.173 µM

COCc1cc(-c2cnc(NCc3cccc4c3CCO4)n3cnnc23)cnc1C [Example 137, N-((2,3-dihydrobenzofuran-4-yl)methyl)-8-(5-(methoxymethyl)-6-methylpyridin-3-yl)-[1,2,4]triazolo[4,3-c]pyrimidin-5-amine]
IC50: 0.226 µM

Cc1cc(C(=O)N2CCCC2)ncc1-c1cnc(NCc2c(F)ccc3c2CCO3)n2cnnc12 [Example 130, (5-(5-(((5-fluoro-2,3-dihydrobenzofuran-4-yl)methyl)amino)-[1,2,4]triazolo[4,3-c]pyrimidin-8-yl)-4-methylpyridin-2-yl)(pyrrolidin-l-yl)methanone]
IC50: 0.0013 µM
